According to PubChem BioAssay (NCI):
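Five compound concentrations were applied to cells in 96-well plates for 48 hours; endpoints were derived by simple linear interpolation of the resulting dose-response curve. TGI denotes the concentration required for complete inhibition of growth.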

Tests used:
Assay in all cases: NCI tumour cell line growth inhibition, 48 h
HCT-116 colon = tested on: HCT-116 colon
CCRF-CEM leukemia = tested on: CCRF-CEM leukemia
HL-60(TB) leukemia = tested on: HL-60(TB) leukemia
HS 578T breast = tested on: HS 578T breast
LOX IMVI melanoma = tested on: LOX IMVI melanoma
COLO 205 colon = tested on: COLO 205 colon
M14 melanoma = tested on: M14 melanoma
MDA-N = tested on: MDA-N
UACC-62 melanoma = tested on: UACC-62 melanoma
A498 renal = tested on: A498 renal
MCF7 breast = tested on: MCF7 breast
HCT-15 colon = tested on: HCT-15 colon
MDA-MB-231 breast = tested on: MDA-MB-231 breast
OVCAR-4 ovarian = tested on: OVCAR-4 ovarian
MOLT-4 leukemia = tested on: MOLT-4 leukemia
UACC-257 melanoma = tested on: UACC-257 melanoma
SK-MEL-28 melanoma = tested on: SK-MEL-28 melanoma
UO-31 renal = tested on: UO-31 renal
NCI-H522 lung = tested on: NCI-H522 lung
IGROV1 ovarian = tested on: IGROV1 ovarian
MDA-MB-435 = tested on: MDA-MB-435
SF-268 CNS = tested on: SF-268 CNS
SF-295 CNS = tested on: SF-295 CNS
MALME-3M melanoma = tested on: MALME-3M melanoma
SR leukemia = tested on: SR leukemia
OVCAR-3 ovarian = tested on: OVCAR-3 ovarian
EKVX NSCLC = tested on: EKVX NSCLC
HOP-62 NSCLC = tested on: HOP-62 NSCLC
786-0 renal = tested on: 786-0 renal
SK-OV-3 ovarian = tested on: SK-OV-3 ovarian
ACHN renal = tested on: ACHN renal
HOP-92 NSCLC = tested on: HOP-92 NSCLC
RXF 393 renal = tested on: RXF 393 renal
SK-MEL-5 melanoma = tested on: SK-MEL-5 melanoma
TK-10 renal = tested on: TK-10 renal
U251 CNS = tested on: U251 CNS
BT-549 breast = tested on: BT-549 breast
SF-539 CNS = tested on: SF-539 CNS
SN12C renal = tested on: SN12C renal
SNB-75 CNS = tested on: SNB-75 CNS
SW-620 colon = tested on: SW-620 colon
DU-145 prostate = tested on: DU-145 prostate
A549 NSCLC = tested on: A549 NSCLC
SK-MEL-2 melanoma = tested on: SK-MEL-2 melanoma
NCI/ADR-RES ovarian = tested on: NCI/ADR-RES ovarian
T-47D breast = tested on: T-47D breast
RPMI-8226 leukemia = tested on: RPMI-8226 leukemia
NCI-H460 lung = tested on: NCI-H460 lung
CAKI-1 renal = tested on: CAKI-1 renal
KM12 colon = tested on: KM12 colon
OVCAR-5 ovarian = tested on: OVCAR-5 ovarian
HT29 colon = tested on: HT29 colon
SNB-19 CNS = tested on: SNB-19 CNS
K-562 leukemia = tested on: K-562 leukemia
PC-3 prostate = tested on: PC-3 prostate
NCI-H226 lung = tested on: NCI-H226 lung
OVCAR-8 ovarian = tested on: OVCAR-8 ovarian
NCI-H23 lung = tested on: NCI-H23 lung
HCC-2998 colon = tested on: HCC-2998 colon

Compound `CCC1=C(CC2NCCc3cc(OC)c(OC)cc32)CC2c3ccccc3CCN2C1` (configuration not stated) has a TGI (HCT-116 colon) greater than 100 µM, a TGI (CCRF-CEM leukemia) of 33.6 µM and a TGI (HL-60(TB) leukemia) of 46.5 µM. The TGI (HS 578T breast) was 49.7 µM, the TGI (LOX IMVI melanoma) was 26.3 µM and the TGI (COLO 205 colon) was 21.8 µM. For the same compound, the TGI (M14 melanoma) was 27.3 µM, the TGI (MDA-N) was 27 µM and the TGI (UACC-62 melanoma) was 28.8 µM. The TGI (A498 renal) was 28.5 µM, the TGI (MCF7 breast) was 42.7 µM and the TGI (HCT-15 colon) was greater than 100 µM. The TGI (MDA-MB-231 breast) was 74.4 µM, the TGI (OVCAR-4 ovarian) was greater than 100 µM and the TGI (MOLT-4 leukemia) was 43.9 µM. The TGI (UACC-257 melanoma) was 32 µM, the TGI (SK-MEL-28 melanoma) was 29 µM and the TGI (UO-31 renal) was 36.3 µM. The TGI (NCI-H522 lung) was 29.1 µM, the TGI (IGROV1 ovarian) was greater than 100 µM and the TGI (MDA-MB-435) was 25.8 µM. It also gave a TGI (SF-268 CNS) greater than 100 µM, a TGI (SF-295 CNS) of 76.3 µM and a TGI (MALME-3M melanoma) of 27.7 µM. It also gave a TGI (SR leukemia) of 24.1 µM, a TGI (OVCAR-3 ovarian) greater than 100 µM and a TGI (EKVX NSCLC) greater than 100 µM. It also gave a TGI (HOP-62 NSCLC) greater than 100 µM, a TGI (786-0 renal) of 35.6 µM and a TGI (SK-OV-3 ovarian) greater than 100 µM. For the same compound, the TGI (ACHN renal) was greater than 100 µM, the TGI (HOP-92 NSCLC) was 42.6 µM and the TGI (RXF 393 renal) was greater than 100 µM. It also gave a TGI (SK-MEL-5 melanoma) of 28 µM, a TGI (TK-10 renal) greater than 100 µM and a TGI (U251 CNS) of 27.6 µM. For the same compound, the TGI (BT-549 breast) was greater than 100 µM, the TGI (SF-539 CNS) was 21.4 µM and the TGI (SN12C renal) was greater than 100 µM. For the same compound, the TGI (SNB-75 CNS) was 87.9 µM, the TGI (SW-620 colon) was 37.3 µM and the TGI (DU-145 prostate) was greater than 100 µM. For the same compound, the TGI (A549 NSCLC) was greater than 100 µM, the TGI (SK-MEL-2 melanoma) was 29.2 µM and the TGI (NCI/ADR-RES ovarian) was greater than 100 µM. For the same compound, the TGI (T-47D breast) was 54.5 µM, the TGI (RPMI-8226 leukemia) was 30.4 µM and the TGI (NCI-H460 lung) was 25.1 µM. For the same compound, the TGI (CAKI-1 renal) was greater than 100 µM, the TGI (KM12 colon) was greater than 100 µM and the TGI (OVCAR-5 ovarian) was greater than 100 µM. The TGI (HT29 colon) was 20.6 µM, the TGI (SNB-19 CNS) was greater than 100 µM and the TGI (K-562 leukemia) was 22 µM. The TGI (PC-3 prostate) was 78.3 µM, the TGI (NCI-H226 lung) was 73.6 µM and the TGI (OVCAR-8 ovarian) was greater than 100 µM.
Compound `COc1cc([N+](=O)[O-])cc2c1NC(=O)C2(C)SC` (configuration not stated) has a TGI (HCT-116 colon) greater than 100 µM, a TGI (CCRF-CEM leukemia) greater than 100 µM and a TGI (HL-60(TB) leukemia) of 47.2 µM. The TGI (HS 578T breast) was greater than 100 µM, the TGI (LOX IMVI melanoma) was greater than 100 µM and the TGI (COLO 205 colon) was greater than 100 µM. For the same compound, the TGI (M14 melanoma) was greater than 100 µM, the TGI (MDA-N) was greater than 100 µM and the TGI (UACC-62 melanoma) was greater than 100 µM. It also gave a TGI (A498 renal) greater than 100 µM, a TGI (MCF7 breast) greater than 100 µM and a TGI (HCT-15 colon) greater than 100 µM. It also gave a TGI (MDA-MB-231 breast) greater than 100 µM, a TGI (OVCAR-4 ovarian) greater than 100 µM and a TGI (MOLT-4 leukemia) greater than 100 µM. The TGI (UACC-257 melanoma) was greater than 100 µM, the TGI (SK-MEL-28 melanoma) was greater than 100 µM and the TGI (UO-31 renal) was greater than 100 µM. The TGI (NCI-H522 lung) was greater than 100 µM, the TGI (IGROV1 ovarian) was greater than 100 µM and the TGI (MDA-MB-435) was greater than 100 µM. It also gave a TGI (SF-268 CNS) greater than 100 µM, a TGI (SF-295 CNS) greater than 100 µM and a TGI (MALME-3M melanoma) greater than 100 µM. For the same compound, the TGI (SR leukemia) was greater than 100 µM, the TGI (OVCAR-3 ovarian) was greater than 100 µM and the TGI (EKVX NSCLC) was greater than 100 µM. The TGI (HOP-62 NSCLC) was greater than 100 µM, the TGI (786-0 renal) was greater than 100 µM and the TGI (SK-OV-3 ovarian) was 69.7 µM. It also gave a TGI (ACHN renal) greater than 100 µM, a TGI (RXF 393 renal) greater than 100 µM and a TGI (SK-MEL-5 melanoma) greater than 100 µM. For the same compound, the TGI (TK-10 renal) was greater than 100 µM, the TGI (U251 CNS) was greater than 100 µM and the TGI (BT-549 breast) was greater than 100 µM. The TGI (SN12C renal) was greater than 100 µM, the TGI (SNB-75 CNS) was 90.6 µM and the TGI (SW-620 colon) was greater than 100 µM. The TGI (DU-145 prostate) was greater than 100 µM, the TGI (A549 NSCLC) was greater than 100 µM and the TGI (SK-MEL-2 melanoma) was greater than 100 µM. It also gave a TGI (NCI/ADR-RES ovarian) greater than 100 µM, a TGI (NCI-H23 lung) greater than 100 µM and a TGI (T-47D breast) greater than 100 µM. It also gave a TGI (RPMI-8226 leukemia) greater than 100 µM, a TGI (NCI-H460 lung) greater than 100 µM and a TGI (CAKI-1 renal) greater than 100 µM. It also gave a TGI (KM12 colon) greater than 100 µM, a TGI (OVCAR-5 ovarian) greater than 100 µM and a TGI (HT29 colon) greater than 100 µM. For the same compound, the TGI (SNB-19 CNS) was greater than 100 µM, the TGI (K-562 leukemia) was greater than 100 µM and the TGI (PC-3 prostate) was greater than 100 µM. The TGI (HCC-2998 colon) was greater than 100 µM, the TGI (NCI-H226 lung) was greater than 100 µM and the TGI (OVCAR-8 ovarian) was greater than 100 µM.
In the case of `CS(=O)(=O)Nc1ccc(NCc2cnc3ccc4[nH]cccc4c23)cc1`, the TGI (HCT-116 colon) is reported as 51.8 µM, the TGI (CCRF-CEM leukemia) is reported as 58.5 µM and the TGI (HL-60(TB) leukemia) is reported as 52.6 µM. It also gave a TGI (HS 578T breast) of 57 µM, a TGI (LOX IMVI melanoma) greater than 100 µM and a TGI (COLO 205 colon) of 36.2 µM. For the same compound, the TGI (M14 melanoma) was 46.4 µM, the TGI (MDA-N) was 37.5 µM and the TGI (UACC-62 melanoma) was 30.7 µM. For the same compound, the TGI (A498 renal) was 51.8 µM, the TGI (MCF7 breast) was 94.9 µM and the TGI (HCT-15 colon) was greater than 100 µM. The TGI (MDA-MB-231 breast) was 97.4 µM, the TGI (OVCAR-4 ovarian) was 78.4 µM and the TGI (MOLT-4 leukemia) was 33.6 µM. It also gave a TGI (UACC-257 melanoma) of 51.9 µM, a TGI (SK-MEL-28 melanoma) of 66.4 µM and a TGI (UO-31 renal) of 78.2 µM. It also gave a TGI (NCI-H522 lung) of 42.3 µM, a TGI (IGROV1 ovarian) greater than 100 µM and a TGI (MDA-MB-435) of 32.5 µM. It also gave a TGI (SF-268 CNS) of 61.8 µM, a TGI (SF-295 CNS) greater than 100 µM and a TGI (MALME-3M melanoma) of 46.6 µM. The TGI (SR leukemia) was 47.7 µM, the TGI (OVCAR-3 ovarian) was 92.9 µM and the TGI (EKVX NSCLC) was greater than 100 µM. The TGI (HOP-62 NSCLC) was greater than 100 µM, the TGI (786-0 renal) was greater than 100 µM and the TGI (SK-OV-3 ovarian) was greater than 100 µM. It also gave a TGI (ACHN renal) greater than 100 µM, a TGI (HOP-92 NSCLC) greater than 100 µM and a TGI (RXF 393 renal) of 41.9 µM. For the same compound, the TGI (SK-MEL-5 melanoma) was 28.8 µM, the TGI (TK-10 renal) was 94.8 µM and the TGI (U251 CNS) was 68.9 µM. For the same compound, the TGI (BT-549 breast) was 73.2 µM, the TGI (SF-539 CNS) was 68.3 µM and the TGI (SN12C renal) was 88.8 µM. It also gave a TGI (SNB-75 CNS) of 61.3 µM, a TGI (SW-620 colon) greater than 100 µM and a TGI (DU-145 prostate) of 71.3 µM. The TGI (A549 NSCLC) was greater than 100 µM, the TGI (SK-MEL-2 melanoma) was 32 µM and the TGI (NCI/ADR-RES ovarian) was greater than 100 µM. For the same compound, the TGI (NCI-H23 lung) was 59.6 µM, the TGI (T-47D breast) was 66.6 µM and the TGI (RPMI-8226 leukemia) was 31 µM. For the same compound, the TGI (NCI-H460 lung) was greater than 100 µM, the TGI (CAKI-1 renal) was 65 µM and the TGI (KM12 colon) was 36.7 µM. It also gave a TGI (OVCAR-5 ovarian) greater than 100 µM, a TGI (HT29 colon) greater than 100 µM and a TGI (SNB-19 CNS) greater than 100 µM. The TGI (K-562 leukemia) was 53.7 µM, the TGI (PC-3 prostate) was 48.1 µM and the TGI (NCI-H226 lung) was greater than 100 µM. For the same compound, the TGI (OVCAR-8 ovarian) was greater than 100 µM.
